Assay results from paper PMC12586182 (Frontiers in Oncology, 2025).

Assays:
activated B-RAF = activated B-RAF (Homo sapiens, UniProt P15056); test: Surface plasmon resonance binding (Biacore 1S+); conditions: SPR, B-RAF
[1] = molecular target: biotinylated, inactive MEK1 (Homo sapiens, UniProt Q02750); test: Surface plasmon resonance binding (Biacore 1S+); conditions: SPR
Chain of biotinylated, inactive MEK1 (Q02750 whole entry): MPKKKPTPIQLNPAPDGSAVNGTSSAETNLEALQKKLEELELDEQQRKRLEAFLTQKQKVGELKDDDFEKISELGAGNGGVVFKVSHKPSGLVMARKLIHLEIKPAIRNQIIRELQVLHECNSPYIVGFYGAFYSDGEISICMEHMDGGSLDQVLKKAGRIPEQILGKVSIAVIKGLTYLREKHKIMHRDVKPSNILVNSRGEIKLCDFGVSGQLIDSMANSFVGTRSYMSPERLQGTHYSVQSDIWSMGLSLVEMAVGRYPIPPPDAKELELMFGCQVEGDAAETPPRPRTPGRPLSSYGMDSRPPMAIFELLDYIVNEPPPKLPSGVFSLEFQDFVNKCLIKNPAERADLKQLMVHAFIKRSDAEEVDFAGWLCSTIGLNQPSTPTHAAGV

Chain of activated B-RAF (P15056 whole entry): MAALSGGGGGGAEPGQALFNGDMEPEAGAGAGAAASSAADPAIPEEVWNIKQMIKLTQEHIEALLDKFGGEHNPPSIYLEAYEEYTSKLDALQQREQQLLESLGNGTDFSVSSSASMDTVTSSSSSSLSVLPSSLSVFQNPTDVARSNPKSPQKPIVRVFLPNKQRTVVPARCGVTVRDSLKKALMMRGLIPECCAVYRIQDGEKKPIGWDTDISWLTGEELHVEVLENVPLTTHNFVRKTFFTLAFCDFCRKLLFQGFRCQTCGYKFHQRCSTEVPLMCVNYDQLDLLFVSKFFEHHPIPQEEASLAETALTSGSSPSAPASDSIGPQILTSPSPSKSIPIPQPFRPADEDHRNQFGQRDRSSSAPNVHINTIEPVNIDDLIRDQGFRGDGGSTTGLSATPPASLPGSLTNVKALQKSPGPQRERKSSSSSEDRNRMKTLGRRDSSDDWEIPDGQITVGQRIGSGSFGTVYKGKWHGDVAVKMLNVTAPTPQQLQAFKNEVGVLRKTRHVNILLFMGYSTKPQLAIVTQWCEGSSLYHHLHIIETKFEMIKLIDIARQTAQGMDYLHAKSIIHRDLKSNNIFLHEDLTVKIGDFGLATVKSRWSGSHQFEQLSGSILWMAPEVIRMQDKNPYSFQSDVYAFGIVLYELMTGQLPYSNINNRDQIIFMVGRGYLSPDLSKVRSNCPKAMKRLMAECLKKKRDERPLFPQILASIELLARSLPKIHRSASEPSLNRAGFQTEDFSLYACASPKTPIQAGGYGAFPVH

Compound	log (kd) (activated B-RAF)	log(ka) (activated B-RAF)	t1/2 (activated B-RAF) [h]	log (kd) [1]	log(ka) [1]	t1/2 [1] [h]
COC(=O)N[C@@H](C)CNc1nccc(-c2cn(C(C)C)nc2-c2cc(Cl)cc(NS(C)(=O)=O)c2F)n1 [encorafenib]	-4.40	5.36	4.8056			
CC(=O)Nc1cccc(-n2c(=O)n(C3CC3)c(=O)c3c(Nc4ccc(I)cc4F)n(C)c(=O)c(C)c32)c1 [trametinib]				-3.87	5.34	1.428
